Reference: PMC12838644, “Dihydrotanshinone as a Natural Product-Based CYP17A1 Lyase Inhibitor for Hyperandrogenic Disorders” (Biomolecules, 2026)

Test system: NCI-H295R, HEK-293T and RWPE-1 cells
Assay: alamarBlue cytotoxicity assay, across all three cell lines
Format: cell-based
Conditions: Homo sapiens, read-out: half-maximal inhibitory concentrations (IC50), range across all three cell lines
Method: Human adrenocortical NCI-H295R cells (ATCC: CRL-2128) were purchased from ATCC and cultured in DMEM/Ham’s F-12 medium with L-glutamine and 15 mM HEPES (Thermo Fisher Scientific, Waltham, MA, USA), supplemented with 5% NU-Serum (Becton Dickinson, Franklin Lakes, NJ, USA), 0.1% insulin, transferrin, selenium (100 U/mL; Thermo Fisher Scientific, Waltham, MA, USA), and 1% penicillin (100 U/mL; Thermo Fisher Scientific, Waltham, MA, USA), and streptomycin (100 μg/mL; GIBCO, New York, NY, USA). RWPE-1 cells (ATCC: CRL-36O7) were cultured in keratinocyte serum-free media (K-SFM) supplemented with 0.05 mg/mL bovine pituitary extract and 5 ng/mL epidermal growth factor, and 1% penicillin (100 U/mL; Thermo Fisher Scientific, Waltham, MA, USA), and streptomycin (100 μg/mL; GIBCO). […] Additionally, key functional and morphological characteristics were assessed to verify their alignment with previously reported profiles.
The alamarBlue® assay (Thermo Fisher Scientific, Waltham, MA USA) was conducted as previously described. […] Cell viability was measured using the alamarBlue® assay. […] The plates were incubated in the dark at 37 °C with 5% CO2 for 4 h, and fluorescence was measured at an excitation wavelength of 540 nm and an emission wavelength of 590 nm. Cell viability was calculated relative to the control sample treated with DMSO. […]

Cc1cccc2c3c(ccc12)C1=C(C(=O)C3=O)[C@@H](C)CO1 [DT, dihydrotanshinone I]
IC50: 0.95 to 1.4 µM
